Measurements taken from patent US20230173098A1, “NANOPARTICLE COMPLEX FOR ORAL ADMINISTRATION AND USES THEREOF” (IUCF-HYU (Industry-University Cooperation Foundation …, priority 2021, published 2023).

Tests used:
[1] = system: brain tumor (U87MG) cells; assay: Phototherapy of brain tumor cells: viability, Annexin V/PI apoptosis, DCFH-DA ROS; format: cell-based, human; settings: PDT+PTT, 2.5 minutes each
Method: Cell viability was measured with an EZ-Cytox kit.
Meanwhile, the intracellular ROS generation by laser irradiation was measured using the fluorescent probe DCFH-DA according to the manufacturer's instructions. Annexin V-DY-634/PI apoptosis was used to evaluate apoptosis. That is, brain tumor (U87MG) cells were suspended in 400 μL binding buffer, and then stained with Annexin V-DY-634 (5 μL) at 2 to 8° C. for 15 minutes. Next, PI (5 μL) was added and the cells were incubated for 5 min. In this case, brain tumor (U87MG) cells were analyzed using FACS.

Caco-2 cell monolayer = format: in vitro ADME, human
Method: Specifically, small intestine […] cells (Caco-2) were inoculated onto a Transwell insert with a diameter of 6.5 mm and a pore size of […] (seeding density: 2×10^4 cells/insert; Corning, Inc., Corning, N.Y., USA).
After the Caco-2 were incubated for approximately 2 to 3 weeks in a CO2 incubator, trans epithelial electrical resistance (TEER) was measured using a voltmeter (EVOM^2; World Precision Instruments, Sarasota, Fla., USA) to confirm tight junctions. In this case, the TEER value […] was used for the assay. […] During the treatment, TEER values were measured at each designated time, and the results are illustrated in FIG. 18.
Pretreated-Lf/Ce6-AuNP-Lf was used to examine passive transport excluding lactoferrin receptor (LfR)-mediated transport.
Referring to this, Lf pretreatment (pretreated-Lf) was performed to saturate LfR expressed in the Caco-2 cell monolayer, and two hours after Lf pretreatment (pretreated-Lf), the medium was exchanged with a Ce6-AuNP-Lf-containing medium.

[2] = system: brain tumor cells (U87MG); assay: Uptake into brain tumor cells (confocal, FACS); format: cell-based, human; settings: Ce6 equivalent 2.5 μM, 18 hours
Method: Next, DAPI mounting medium (Vector Laboratories, Inc., Burlingame, Calif., USA) was used and the intracellular Ce6 fluorescence was observed under a confocal microscope (TCS SP5, Leica, Germany).
Meanwhile, flow cytometry (FACS Calibur™; BD Biosciences, Franklin Lakes, N.J.) was used to quantify the intracellular Ce6 fluorescence. […] After washing three times with PBS, the cells were detached with trypsin/EDTA, centrifuged for 3 minutes at 1000 rpm, and then analyzed with FACS.

[3] = Surface charge measurement (Zetasizer Nano ZS); format: physicochemical; settings: mean±SEM, n=3, in mV (unit assumed)
[4] = Photobleaching of Ce6 fluorescence under PDT laser (671 nm); format: physicochemical; settings: 10 minutes PDT laser 671 nm; Ce6 equivalent 2.5 μM in ethanol
Method: In this case, each sample (Ce6 equivalent concentration of 2.5 μM) was dissolved in ethanol and irradiated with a PDT laser (MRL-III-671, 671±1 nm, China) for 10 minutes, and then the photobleaching of Ce6 fluorescence (λ excitation/λ emission=400 nm/671 nm) of each sample was measured according to laser irradiation time, and the results are illustrated in FIG. 10.

[5] = Hydrophobic assay (water/octanol phase transition, absorbance at 400 nm and 671 nm); format: physicochemical; settings: dissolved in DW, octanol added

transmittance / amount transported across the barrier (Caco-2 cell monolayer): about 47.6%
surface charge [3]: −9.4±4.3
hydrophobicity [5]: hydrophobic
Substance: Chlorin e6 [Ce6]
apoptotic cell population (Annexin-V+/PI+) [1]: 22.0%
amount of uptake into the cells (FACS, intracellular Ce6 fluorescence) [2]: 43.6±2.2
Ce6 fluorescence after PDT laser irradiation (photobleaching) [4]: 57.0±5.6%
